From US6645918B1, “N-([1,2,4]triazoloazinyl)thiophenesulfonamide compounds and their use as herbicides” (Dow AgroSciences LLC, priority 2000, dated 2003)

Columns and labels:
Type in all cases: in vivo
[1] = test system: blackgrass (Alopecurus myosuroides); assay: Postemergence herbicidal activity, blackgrass; conditions: foliar spray, visual after 2 weeks, 0 no injury, 100 complete kill
Outline: (§1)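 Injury rated visually at 2 weeks, 0 (none) to 100% (complete kill), relative to carrier-sprayed controls. Foliar spray applied to 7–21-day-old seedlings at first or second true leaf, with rates in ppm (1 ppm ≈ 1 g/ha) in an aqueous acetone/DMSO/crop oil/surfactant mix.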

[2] = test system: cocklebur (Xanthium strumarium); assay: Preemergence herbicidal activity, cocklebur; conditions: soil spray, visual after 3 weeks, 0 no injury, 100 complete kill or no germination
Outline: (§2)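 Ratings are percent injury assessed visually three weeks after treatment, comparing emerged treated plants with untreated ones; 0 indicates no effect and 100 indicates plants killed or not germinated. Compound was sprayed on the soil of seeded pots at up to 4.48 kg/ha.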

[3] = test system: velvetleaf (Abutilion theophrasti); assay: Postemergence herbicidal activity, velvetleaf; conditions: foliar spray, visual after 2 weeks, 0 no injury, 100 complete kill
Outline: as §1

[4] = test system: velvetleaf (Abutilion theophrasti); assay: Preemergence herbicidal activity, velvetleaf; conditions: soil spray, visual after 3 weeks, 0 no injury, 100 complete kill or no germination
Outline: as §2

[5] = test system: Rox orange sorghum (Sorghum bicolor); assay: Preemergence herbicidal activity, Rox orange sorghum; conditions: soil spray, visual after 3 weeks, 0 no injury, 100 complete kill or no germination
Outline: as §2

[6] = test system: blackgrass (Alopecurus myosuroides); assay: Preemergence herbicidal activity, blackgrass; conditions: soil spray, visual after 3 weeks, 0 no injury, 100 complete kill or no germination
Outline: as §2

[7] = test system: giant foxtail (Setaria faberi); assay: Preemergence herbicidal activity, giant foxtail; conditions: soil spray, visual after 3 weeks, 0 no injury, 100 complete kill or no germination
Outline: as §2

[8] = test system: barnyardgrass (Echinochloa crus-galli); assay: Preemergence herbicidal activity, barnyardgrass; conditions: soil spray, visual after 3 weeks, 0 no injury, 100 complete kill or no germination
Outline: as §2

[9] = test system: chickweed (Stellaria media); assay: Postemergence herbicidal activity, chickweed; conditions: foliar spray, visual after 2 weeks, 0 no injury, 100 complete kill
Outline: as §1

[10] = test system: Rox orange sorghum (Sorghum bicolor); assay: Postemergence herbicidal activity, Rox orange sorghum; conditions: foliar spray, visual after 2 weeks, 0 no injury, 100 complete kill
Outline: as §1

[11] = test system: lambsquarters (Chenopodium album); assay: Postemergence herbicidal activity, lambsquarters; conditions: foliar spray, visual after 2 weeks, 0 no injury, 100 complete kill
Outline: as §1

wild oats (Avena fatua) [12] = assay: Postemergence herbicidal activity, wild oats; conditions: foliar spray, visual after 2 weeks, 0 no injury, 100 complete kill
Outline: as §1

[13] = test system: wild poinsettia (Euphorbia heterophylla); assay: Preemergence herbicidal activity, wild poinsettia; conditions: soil spray, visual after 3 weeks, 0 no injury, 100 complete kill or no germination
Outline: as §2

[14] = test system: lambsquarters (Chenopodium album); assay: Preemergence herbicidal activity, lambsquarters; conditions: soil spray, visual after 3 weeks, 0 no injury, 100 complete kill or no germination
Outline: as §2

[15] = test system: cocklebur (Xanthium strumarium); assay: Postemergence herbicidal activity, cocklebur; conditions: foliar spray, visual after 2 weeks, 0 no injury, 100 complete kill
Outline: as §1

[16] = test system: morningglory (Ipomoea hederacea); assay: Preemergence herbicidal activity, morningglory; conditions: soil spray, visual after 3 weeks, 0 no injury, 100 complete kill or no germination
Outline: as §2

[17] = test system: pigweed (Amaranthus retroflexus); assay: Postemergence herbicidal activity, pigweed; conditions: foliar spray, visual after 2 weeks, 0 no injury, 100 complete kill
Outline: as §1

[18] = test system: crabgrass (Digitaria sanguinalis); assay: Preemergence herbicidal activity, crabgrass; conditions: soil spray, visual after 3 weeks, 0 no injury, 100 complete kill or no germination
Outline: as §2

[19] = test system: pigweed (Amaranthus retroflexus); assay: Preemergence herbicidal activity, pigweed; conditions: soil spray, visual after 3 weeks, 0 no injury, 100 complete kill or no germination
Outline: as §2

viola (Viola tricolor) = assay: Postemergence herbicidal activity, viola; conditions: foliar spray, visual after 2 weeks, 0 no injury, 100 complete kill
Outline: as §1

wild oats (Avena fatua) [20] = assay: Preemergence herbicidal activity, wild oats; conditions: soil spray, visual after 3 weeks, 0 no injury, 100 complete kill or no germination
Outline: as §2

[21] = test system: wild buckwheat (Polygonum convolvulus); assay: Postemergence herbicidal activity, wild buckwheat; conditions: foliar spray, visual after 2 weeks, 0 no injury, 100 complete kill
Outline: as §1

[22] = test system: giant foxtail (Setaria faberi); assay: Postemergence herbicidal activity, giant foxtail; conditions: foliar spray, visual after 2 weeks, 0 no injury, 100 complete kill
Outline: as §1

[23] = test system: morningglory (Ipomoea hederacea); assay: Postemergence herbicidal activity, morningglory; conditions: foliar spray, visual after 2 weeks, 0 no injury, 100 complete kill
Outline: as §1

In the case of `COc1csc(C)c1S(=O)(=O)Nc1nc2c(Cl)cnc(OC)n2n1` [Compound 22], the “ALOMY postemergence injury score 0-100” value ([1]; 31.3 ppm) was 60%, the “XANST preemergence injury score 0-100” value ([2]; 35 g/Ha) was 80% and the “ABUTH postemergence injury score 0-100” value ([3]; 31.3 ppm) was 70%. The “ABUTH preemergence injury score 0-100” value ([4]; 35 g/Ha) was 100%, the “SORBI preemergence injury score 0-100” value ([5]; 35 g/Ha) was 100% and the “ALOMY preemergence injury score 0-100” value ([6]; 35 g/Ha) was 70%. The “SETFA preemergence injury score 0-100” value ([7]; 35 g/Ha) was 100%, the “ECHCG preemergence injury score 0-100” value ([8]; 35 g/Ha) was 100% and the “STEME postemergence injury score 0-100” value ([9]; 31.3 ppm) was 80%. For the same compound, the “SORBI postemergence injury score 0-100” value ([10]; 31.3 ppm) was 95%, the “CHEAL postemergence injury score 0-100” value ([11]; 31.3 ppm) was 90% and the “AVEFA postemergence injury score 0-100” value (wild oats (Avena fatua) [12]; 31.3 ppm) was 50%. For the same compound, the “EPHHL preemergence injury score 0-100” value ([13]; 35 g/Ha) was 80%, the “CHEAL preemergence injury score 0-100” value ([14]; 35 g/Ha) was 98% and the “XANST postemergence injury score 0-100” value ([15]; 31.3 ppm) was 90%. The “IPOHE preemergence injury score 0-100” value ([16]; 35 g/Ha) was 98%, the “AMARE postemergence injury score 0-100” value ([17]; 31.3 ppm) was 100% and the “DIGSA preemergence injury score 0-100” value ([18]; 35 g/Ha) was 98%. For the same compound, the “AMARE preemergence injury score 0-100” value ([19]; 35 g/Ha) was 100%, the “VIOTR postemergence injury score 0-100” value (viola (Viola tricolor); 31.3 ppm) was 80% and the “AVEFA preemergence injury score 0-100” value (wild oats (Avena fatua) [20]; 35 g/Ha) was 70%. For the same compound, the “POLCO postemergence injury score 0-100” value ([21]; 31.3 ppm) was 90%, the “SETFA postemergence injury score 0-100” value ([22]; 31.3 ppm) was 80% and the “IPOHE postemergence injury score 0-100” value ([23]; 31.3 ppm) was 90%.
In the case of `COc1csc(Cl)c1S(=O)(=O)Nc1nc2c(Cl)cnc(OC)n2n1` [Compound 20], the “ALOMY postemergence injury score 0-100” value ([1]; 31.3 ppm) was 30%, the “XANST preemergence injury score 0-100” value ([2]; 17.5 g/Ha) was 60% and the “ABUTH postemergence injury score 0-100” value ([3]; 31.3 ppm) was 85%. For the same compound, the “ABUTH preemergence injury score 0-100” value ([4]; 17.5 g/Ha) was 80%, the “SORBI preemergence injury score 0-100” value ([5]; 17.5 g/Ha) was 90% and the “ALOMY preemergence injury score 0-100” value ([6]; 17.5 g/Ha) was 90%. For the same compound, the “SETFA preemergence injury score 0-100” value ([7]; 17.5 g/Ha) was 50%, the “ECHCG preemergence injury score 0-100” value ([8]; 17.5 g/Ha) was 95% and the “STEME postemergence injury score 0-100” value ([9]; 31.3 ppm) was 85%. The “SORBI postemergence injury score 0-100” value ([10]; 31.3 ppm) was 85%, the “CHEAL postemergence injury score 0-100” value ([11]; 31.3 ppm) was 75% and the “AVEFA postemergence injury score 0-100” value (wild oats (Avena fatua) [12]; 31.3 ppm) was 70%. The “EPHHL preemergence injury score 0-100” value ([13]; 17.5 g/Ha) was 50%, the “CHEAL preemergence injury score 0-100” value ([14]; 17.5 g/Ha) was 70% and the “XANST postemergence injury score 0-100” value ([15]; 31.3 ppm) was 100%. The “IPOHE preemergence injury score 0-100” value ([16]; 17.5 g/Ha) was 70%, the “AMARE postemergence injury score 0-100” value ([17]; 31.3 ppm) was 95% and the “DIGSA preemergence injury score 0-100” value ([18]; 17.5 g/Ha) was 85%. The “AMARE preemergence injury score 0-100” value ([19]; 17.5 g/Ha) was 80%, the “VIOTR postemergence injury score 0-100” value (viola (Viola tricolor); 31.3 ppm) was 90% and the “AVEFA preemergence injury score 0-100” value (wild oats (Avena fatua) [20]; 17.5 g/Ha) was 90%. For the same compound, the “POLCO postemergence injury score 0-100” value ([21]; 31.3 ppm) was 90%, the “SETFA postemergence injury score 0-100” value ([22]; 31.3 ppm) was 50% and the “IPOHE postemergence injury score 0-100” value ([23]; 31.3 ppm) was 75%.
`COc1csc(C)c1S(=O)(=O)Nc1nc2c(OC)cnc(OC)n2n1` [Compound 23] was tested, and the “ALOMY postemergence injury score 0-100” value ([1]; 15.6 ppm) was 70%, the “XANST preemergence injury score 0-100” value ([2]; 4.4 g/Ha) was 70% and the “ABUTH postemergence injury score 0-100” value ([3]; 15.6 ppm) was 90%. The “ABUTH preemergence injury score 0-100” value ([4]; 4.4 g/Ha) was 90%, the “SORBI preemergence injury score 0-100” value ([5]; 4.4 g/Ha) was 100% and the “ALOMY preemergence injury score 0-100” value ([6]; 4.4 g/Ha) was 98%. The “SETFA preemergence injury score 0-100” value ([7]; 4.4 g/Ha) was 98%, the “ECHCG preemergence injury score 0-100” value ([8]; 4.4 g/Ha) was 80% and the “STEME postemergence injury score 0-100” value ([9]; 15.6 ppm) was 80%. The “SORBI postemergence injury score 0-100” value ([10]; 15.6 ppm) was 90%, the “CHEAL postemergence injury score 0-100” value ([11]; 15.6 ppm) was 80% and the “AVEFA postemergence injury score 0-100” value (wild oats (Avena fatua) [12]; 15.6 ppm) was 70%. For the same compound, the “EPHHL preemergence injury score 0-100” value ([13]; 4.4 g/Ha) was 90%, the “CHEAL preemergence injury score 0-100” value ([14]; 4.4 g/Ha) was 90% and the “XANST postemergence injury score 0-100” value ([15]; 15.6 ppm) was 90%. For the same compound, the “IPOHE preemergence injury score 0-100” value ([16]; 4.4 g/Ha) was 80%, the “AMARE postemergence injury score 0-100” value ([17]; 15.6 ppm) was 90% and the “DIGSA preemergence injury score 0-100” value ([18]; 4.4 g/Ha) was 100%. The “AMARE preemergence injury score 0-100” value ([19]; 4.4 g/Ha) was 100%, the “VIOTR postemergence injury score 0-100” value (viola (Viola tricolor); 15.6 ppm) was 70% and the “AVEFA preemergence injury score 0-100” value (wild oats (Avena fatua) [20]; 4.4 g/Ha) was 90%. For the same compound, the “POLCO postemergence injury score 0-100” value ([21]; 15.6 ppm) was 75%, the “SETFA postemergence injury score 0-100” value ([22]; 15.6 ppm) was 90% and the “IPOHE postemergence injury score 0-100” value ([23]; 15.6 ppm) was 40%.
`COc1cscc1S(=O)(=O)Nc1nc2c(C)cnc(OC)n2n1` [Compound 17] was tested, and the “ALOMY postemergence injury score 0-100” value ([1]; 31.3 ppm) was 70%, the “XANST preemergence injury score 0-100” value ([2]; 35 g/Ha) was 70% and the “ABUTH postemergence injury score 0-100” value ([3]; 31.3 ppm) was 85%. For the same compound, the “ABUTH preemergence injury score 0-100” value ([4]; 35 g/Ha) was 30%, the “SORBI preemergence injury score 0-100” value ([5]; 35 g/Ha) was 60% and the “ALOMY preemergence injury score 0-100” value ([6]; 35 g/Ha) was 100%. For the same compound, the “SETFA preemergence injury score 0-100” value ([7]; 35 g/Ha) was 60%, the “ECHCG preemergence injury score 0-100” value ([8]; 35 g/Ha) was 30% and the “STEME postemergence injury score 0-100” value ([9]; 31.3 ppm) was 90%. For the same compound, the “SORBI postemergence injury score 0-100” value ([10]; 31.3 ppm) was 90%, the “CHEAL postemergence injury score 0-100” value ([11]; 31.3 ppm) was 100% and the “AVEFA postemergence injury score 0-100” value (wild oats (Avena fatua) [12]; 31.3 ppm) was 85%. For the same compound, the “EPHHL preemergence injury score 0-100” value ([13]; 35 g/Ha) was 60%, the “CHEAL preemergence injury score 0-100” value ([14]; 35 g/Ha) was 100% and the “XANST postemergence injury score 0-100” value ([15]; 31.3 ppm) was 95%. For the same compound, the “IPOHE preemergence injury score 0-100” value ([16]; 35 g/Ha) was 0%, the “AMARE postemergence injury score 0-100” value ([17]; 31.3 ppm) was 95% and the “DIGSA preemergence injury score 0-100” value ([18]; 35 g/Ha) was 30%. For the same compound, the “AMARE preemergence injury score 0-100” value ([19]; 35 g/Ha) was 70%, the “VIOTR postemergence injury score 0-100” value (viola (Viola tricolor); 31.3 ppm) was 70% and the “AVEFA preemergence injury score 0-100” value (wild oats (Avena fatua) [20]; 35 g/Ha) was 30%. The “POLCO postemergence injury score 0-100” value ([21]; 31.3 ppm) was 60%, the “SETFA postemergence injury score 0-100” value ([22]; 31.3 ppm) was 90% and the “IPOHE postemergence injury score 0-100” value ([23]; 31.3 ppm) was 70%.
